Experimental data reported in patent US10702571B2, “Materials for cathepsin B enhancement and methods of use” (The University of North Carolina at Pembroke, priority 2015, dated 2020).
Where a SMILES comes first, the peptide text is derived from it. The star is where a group is joined. Cbz = O=C(OCc1ccccc1)*

Tests used:
[1] = test system: 30-kDa active form of cathepsin B (CatB-30); experiment: Hippocampal slice cultures treated for two days, immunoblot for active cathepsin B; format: cell-based, rodent; conditions: for levels of cathepsin B (summary in words) / effect of the cathepsin B positive modulator PADK in combination with flavonol (summary in words): summary in the discussion; for increase in CatB-30 by flavonol alone: 5 μM flavonol alone for 2 days; for increase in cathepsin B (CatB-30): vs non-treated slices, statistically significant
Experimental: FIG. 1. Cathepsin B positive modulation by flavonols—members of the flavonoid class of polyphenolic compounds. Flavonols of quercetin (Q), fisetin (F), and myricetin (M) were applied daily to rodent hippocampal slice cultures. After two (2) days, non-treated (NT) and treated slices were harvested, homogenates were prepared, and equal protein aliquots were assessed by immunoblot to label the 30-kDa active form of cathepsin B (CatB-30). […] FIG. 2. Cathepsin B positive modulation by Z-Phe-Pro-OH. The compound Z-Phe-Pro-OH was applied to rodent hippocampal slice cultures for two (2) days. […] FIG. 3. Quercetin enhances the effect of the cathepsin B positive modulator Z-Phe-Ala-diazomethylketone (PADK). Quercetin (Q) at 5 μM was added to the daily PADK treatments of rodent hippocampal slice cultures. After two (2) days, non-treated (NT) and treated slices were harvested, homogenates were prepared, and equal protein aliquots were assessed by immunoblot to label the active form of cathepsin B (CatB-30). Paired, two-tailed t-test among distinct immunoblots found a statistically significant enhancement of the PADK effect by quercetin (p=0.0167; pairing was effective: p=0.0014). An enhancement of 60-70% occurred, whereas 5 μM quercetin alone for 2 days caused only a 21% increase in CatB-30. FIG. 4. Fisetin and myricetin enhance the cathepsin B positive modulation produced by 10 μM Z-Phe-Ala-diazomethylketone (PADK). Fisetin at 5 μM (top graph) or myricetin at 5 μM (bottom graph) were added to the two daily PADK treatments of rodent hippocampal slice cultures. The non-treated (NT) and treated slices were harvested, homogenates were prepared, and equal protein aliquots were assessed by immunoblot to label the active form of cathepsin B (CatB-30). […] An enhancement of 95-140% was produced by fisetin, whereas 5 μM fisetin alone for two (2) days caused only a 40% increase in CatB-30. FIG. 5. Dose-dependent enhancement of the PADK effect on CatB by flavonols. Quercetin (Q), fisetin (F), and myricetin (M) at 5-10 μM were applied daily to rodent hippocampal slice cultures that were also treated with 3 μM PADK (top graph) or 10 μM PADK (bottom graph). After two (2) days, non-treated (NT) and treated slices were harvested, homogenates were prepared, and equal protein aliquots were assessed by immunoblot to label the 30-kDa active form of cathepsin B (CatB-30). […] The 10 μM PADK slices indicate that each flavonol at the lower concentration has an enhancing effect, but the effect is eliminated or reduced when the flavonol concentration is doubled. As described in FIG. 1, flavonols such as quercetin (Q), fisetin (F), and myricetin (M) were applied daily to rodent hippocampal slice cultures. After two (2) days, non-treated (NT) and treated slices were harvested, homogenates were prepared, and equal protein aliquots were assessed by immunoblot to label the 30-kDa active form of cathepsin B (CatB-30). As described in FIG. 2, the compound of Z-Phe-Pro-OH was applied to rodent hippocampal slice cultures for two (2) days. As described in FIG. 3, the flavonol of quercetin (Q) was added at 5 μM to the daily PADK treatments of rodent hippocampal slice cultures. After two (2) days, non-treated (NT) and treated slices were harvested, homogenates were prepared, and equal protein aliquots were assessed by immunoblot to label the active form of cathepsin B (CatB-30). As described in FIG. 4, the flavonols of fisetin at 5 μM (top graph of FIG. 4) or myricetin at 5 μM (bottom graph of FIG. 4) were added to the two daily PADK treatments of rodent hippocampal slice cultures. The non-treated (NT) and treated slices were harvested, homogenates were prepared, and equal protein aliquots were assessed by immunoblot to label the active form of cathepsin B (CatB-30). As described in FIG. 5, the flavonols of quercetin (Q), fisetin (F), and myricetin (M) at 5-10 μM were applied daily to rodent hippocampal slice cultures that were also treated with 3 μM PADK (top graph) or 10 μM PADK (bottom graph). […]

[2] = test system: synaptic marker GluR1; experiment: Oral dosing in peanut butter pellets to middle-aged mice, dissected hippocampi: synaptic marker GluR1; format: in vivo; conditions: oral twice daily for 11 days, hippocampus, vs control compound
Experimental: (§1) Compounds in peanut butter pellets were administered to middle-aged mice orally twice daily for 11 days, then dissected hippocampi were compared to control mice that received the same oral dosing with control compound.

[3] = test system: CatB-30; experiment: Oral dosing in peanut butter pellets to middle-aged mice, dissected hippocampi: CatB-30; format: in vivo; conditions: oral twice daily for 11 days, hippocampus, vs control compound
Experimental: as §1

[4] = flavonol at 5 and 10 μM daily with 3 μM PADK, two days

| Compound | levels of cathepsin B (summary in words) [1] | enhancement of the PADK effect on CatB-30 ([1]; 5 μM fisetin added to two daily treatments with 10 μM PADK) | increase in CatB-30 by flavonol alone [1] | increase in cathepsin B (CatB-30) ([1]; 5-30 μM fisetin applied daily, two days) | enhancement of the PADK effect on CatB-30 (in words) [1, 4] | effect of the cathepsin B positive modulator PADK in combination with flavonol (summary in words) [1] | enhancement of the PADK effect on CatB-30 (in words) ([1]; 5 μM myricetin added to two daily treatments with 10 μM PADK, one-tailed p=0.033) | enhancement of the PADK effect on CatB-30 ([1]; 5 μM quercetin added to the daily PADK treatments, two days) | increase in cathepsin B (CatB-30) ([1]; 5-20 μM quercetin applied daily, two days) | synaptic marker GluR1 [2] | CatB-30 in female mice ([3]; female middle-aged mice) | CatB-30 in male mice ([3]; male middle-aged mice) |
| --- | --- | --- | --- | --- | --- | --- | --- | --- | --- | --- | --- | --- |
| O=C(N[C@@H](Cc1ccccc1)C(=O)N1CCC[C@H]1C(=O)O)OCc1ccccc1 [Z-Phe-Pro-OH, N-carbobenzoxy-L-phenylalanyl-L-proline] (Cbz-Phe-Pro-OH) | increase levels of cathepsin B | – | – | – | – | – | – | – | – | – | – | – |
| O=c1c(O)c(-c2ccc(O)c(O)c2)oc2cc(O)ccc12 [fisetin] | increase levels of cathepsin B | 95-140% | 40% | 1.65 fold | only the higher 10 μM concentration of fisetin enhanced the effect | enhance the effect | – | – | – | – | – | – |
| O=c1c(O)c(-c2cc(O)c(O)c(O)c2)oc2cc(O)cc(O)c12 [myricetin] | increase levels of cathepsin B | – | – | – | no enhancing effect at either concentration | enhance the effect | smaller enhancement | – | – | – | – | – |
| O=c1c(O)c(-c2ccc(O)c(O)c2)oc2cc(O)cc(O)c12 [quercetin] | increase levels of cathepsin B | – | 21% | – | both 5 and 10 μM quercetin enhanced the PADK effect | enhance the effect | – | 60-70% | 1.96 fold | enhanced synaptic marker GluR1 | increased CatB-30 in female mice | increased CatB-30 in male mice |
